Measurements from patent US20250171463A1 (BIOGEN MA INC., priority 2022, published 2025).

Target: T1, EBP (Homo sapiens, UniProt Q15125)
T1 construct: HEK293T cells were utilized as the source of EBP enzyme; endogenous in cells; host or cells: HEK293T
Experiment: EBP Functional Assay (EBP immunoaffinity LC-MS assay)
Type: biochemical
Settings: EBP enzyme from HEK293T cells; 30 min with inhibitor, then zymosterol-d5, 37° C., 4 h; percent conversion to dehydrolathosterol-d5 by LC-APCI MRM MS
Method: The EBP immunoaffinity (IA) LC-MS assay measures the potency of small molecule inhibitors of EBP by quantifying their concentration-dependent changes in the enzyme's substrate and product using liquid chromatography atmospheric pressure chemical ionization multiple reaction monitoring mass spectrometry (LC-APCI MRM MS). HEK293T cells were utilized as the source of EBP enzyme. The enzyme was incubated with the small molecule inhibitors at variable concentrations for 30 min. Deuterated form of EBP substrate, zymosterol-d5 (Avanti Polar Lipids, Cat #700068P-1 mg), was then added and the plate was incubated at 37° C. for 4 h. Finally, the sterol isomers were extracted and injected to LC-APCI MRM MS. MRM transition used for the quantification for both zymosterol and […] (substrate and product of EBP enzymatic reaction, respectively) is 372.3-203.2, CE 30 and DP 80 in positive ion mode. Percent conversion of the zymosterol-d5 to dehydrolathosterol-d5 was used to derive IC50 curves. Tasin-1 (1′-[(4-Methoxyphenyl)sulfonyl]-4-methyl-1,4′-bipiperidine, CAS 792927-06-1) was used as the reference small molecule inhibitor.
Percent conversion versus the compound concentration data were fit to the following 4-parameter logistic model to generate IC50 curves: […]

T1 sequence (Q15125 whole entry): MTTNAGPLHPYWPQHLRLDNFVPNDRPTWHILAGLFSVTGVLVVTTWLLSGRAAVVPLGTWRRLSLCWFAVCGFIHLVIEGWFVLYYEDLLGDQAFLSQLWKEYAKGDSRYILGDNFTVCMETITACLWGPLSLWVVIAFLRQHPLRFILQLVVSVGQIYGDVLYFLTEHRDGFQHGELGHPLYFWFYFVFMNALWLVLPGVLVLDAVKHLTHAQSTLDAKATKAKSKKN

IC50 [nM]	Structure (SMILES)
100 to 250	COC(C)(C)CN1CC2(C[C@H]3CC[C@@H](C2)N3S(=O)(=O)c2ccc(OC(F)F)cc2)C1 [Example 63, (1′R,5′S)-8′-((4-(Difluoromethoxy)phenyl)sulfonyl)-1-(2-methoxy-2-methylpropyl)-8′-azaspiro[azetidine-3,3′-bicyclo[3.2.1]octane]]
250 to 4000	Cc1nc(C(F)(F)F)ccc1S(=O)(=O)N1CC2(CN(C3CCCOC3)C2)C1 (stereo not drawn) [Example 151]
< 100	Cc1nc(C(F)(F)F)ccc1S(=O)(=O)N1CC2(CN(C(C)C34COC(C)(C3)C4)C2)C1 (racemic) [Example 167, rac-2-(1-(1-methyl-2-oxabicyclo[2.1.1]hexan-4-yl)ethyl)-6-((2-methyl-6-(trifluoromethyl)pyridin-3-yl)sulfonyl)-2,6-diazaspiro[3.3]heptane]
100 to 250	Cc1nc(C(F)(F)F)ccc1S(=O)(=O)N1CC2(CN(C3CCC(C)(O)CC3)C2)C1 (stereo not drawn) [Example 222, 1-methyl-4-(6-((2-methyl-6-(trifluoromethyl)pyridin-3-yl)sulfonyl)-2,6-diazaspiro[3.3]heptan-2-yl)cyclohexan-1-ol]
< 100	Cc1ccc(S(=O)(=O)N2CCC3(CCN(C4CCOCC4)C3)CC2)c(Cl)c1 [Example 36, 8-((2-Chloro-4-methylphenyl)sulfonyl)-2-(tetrahydro-2H-pyran-4-yl)-2,8-diazaspiro[4.5]decane]
< 100	Cc1nc(C(F)(F)F)ccc1S(=O)(=O)N1CC2(CN(CC3(C)COC3)C2)C1 [Example 141]
< 100	Cc1nc(C(F)(F)F)ccc1S(=O)(=O)N1CC2(CN(C(C)C3CCOCC3)C2)C1 (single isomer, unassigned) [Example 156]
< 100	Cc1nc(C(F)(F)F)ccc1S(=O)(=O)N1CC2(CN(C(C)C3CCOCC3)C2)C1 (racemic) [Example 153, rac-2-((2-methyl-6-(trifluoromethyl)pyridin-3-yl)sulfonyl)-6-(1-(tetrahydro-2H-pyran-4-yl)ethyl)-2,6-diazaspiro[3.3]heptane]
250 to 4000	Cc1nc(C(F)(F)F)ccc1S(=O)(=O)N1CC2(CN(CC3COCCO3)C2)C1 (racemic) [Example 216, rac-2-((1,4-dioxan-2-yl)methyl)-6-((2-methyl-6-(trifluoromethyl)pyridin-3-yl)sulfonyl)-2,6-diazaspiro[3.3]heptane]
< 100	Cc1nc(C(F)(F)F)ccc1S(=O)(=O)N1CCC2(CCN(C3CCOCC3)C2)CC1 [Example 42]
250 to 4000	CCc1cc(C(F)(F)F)ncc1S(=O)(=O)N1CC2(CN(CC3CCOCC3)C2)C1 [Example 126, 2-((4-ethyl-6-(trifluoromethyl)pyridin-3-yl)sulfonyl)-6-((tetrahydro-2H-pyran-4-yl)methyl)-2,6-diazaspiro[3.3]heptane]
250 to 4000	O=S(=O)(c1ccc(OC(F)F)cc1)N1CCOC2(CCN(CC3CCOCC3)CC2)C1 [Example 19, 4-((4-(Difluoromethoxy)phenyl)sulfonyl)-9-((tetrahydro-2H-pyran-4-yl)methyl)-1-oxa-4,9-diazaspiro[5.5]undecane]
250 to 4000	CC(C)(O)CN1CCC2(CC1)CN(S(=O)(=O)c1ccc(OC(F)F)cc1)CCO2 [Example 10, 1-(4-((4-(Difluoromethoxy)phenyl)sulfonyl)-1-oxa-4,9-diazaspiro[5.5]undecan-9-yl)-2-methylpropan-2-ol]
250 to 4000	Cc1nc(C(F)(F)F)ccc1S(=O)(=O)N1CC2(CN(CC3CCOC3)C2)C1 (stereo not drawn) [Example 133]
250 to 4000	Cc1nc(Br)ccc1S(=O)(=O)N1CC2(CN(C3CCOCC3)C2)C1 [Example 67, 2-((6-bromo-2-methylpyridin-3-yl)sulfonyl)-6-(tetrahydro-2H-pyran-4-yl)-2,6-diazaspiro[3.3]heptane]
< 100	CCc1cc(C(F)(F)F)ncc1S(=O)(=O)N1CC2(CN(C3CCC(C)(O)CC3)C2)C1 (single isomer, unassigned) [Example 127, 4-(6-((4-ethyl-6-(trifluoromethyl)pyridin-3-yl)sulfonyl)-2,6-diazaspiro[3.3]heptan-2-yl)-1-methylcyclohexan-1-ol]
100 to 250	Cc1nn(C)c(S(=O)(=O)N2CC3(CN(C4CCOCC4)C3)C2)c1C(F)F [Example 49]
100 to 250	O=S(=O)(c1cc(F)cc(F)c1)N1CCOC2(CCN(C3CC4(COC4)C3)C2)C1 (stereo not drawn) [Example 28, 9-((3,5-Difluorophenyl)sulfonyl)-2-(2-oxaspiro[3.3]heptan-6-yl)-6-oxa-2,9-diazaspiro[4.5]decane]
250 to 4000	COc1cc(S(=O)(=O)N2CC3(CN(C4CCOCC4)C3)C2)n(C)n1 [Example 97, 2-((3-methoxy-1-methyl-1H-pyrazol-5-yl)sulfonyl)-6-(tetrahydro-2H-pyran-4-yl)-2,6-diazaspiro[3.3]heptane]
< 100	Cc1cc(OC(F)(F)F)ccc1S(=O)(=O)N1CC2(CN(C3CCOCC3)C2)C1 [Example 50]

IC50 [nM]	Structure (SMILES)
< 100	Cc1nc(C(F)(F)F)ccc1S(=O)(=O)N1CC2(CN(C(C)C3COC3)C2)C1 (single isomer, unassigned) [Example 159]
100 to 250	O=S(=O)(c1cc(C(F)F)nn1C1CC1)N1CC2(CN(C3CCOCC3)C2)C1 [Example 120, 2-((1-cyclopropyl-3-(difluoromethyl)-1H-pyrazol-5-yl)sulfonyl)-6-(tetrahydro-2H-pyran-4-yl)-2,6-diazaspiro[3.3]heptane]
100 to 250	Cc1nc(C(F)(F)F)ccc1S(=O)(=O)N1CC2(CN(CC3CCOC3)C2)C1 (single isomer, unassigned) [Example 160]
250 to 4000	Cc1nc(C(F)(F)F)ccc1S(=O)(=O)N1CC2(CN(C(C)C3COC3)C2)C1 (single isomer, unassigned) [Example 158]
250 to 4000	O=S(=O)(c1ccc(C(F)(F)F)nc1)N1CC2(CN(CC3CCOCC3)C2)C1 [Example 229, 2-((tetrahydro-2H-pyran-4-yl)methyl)-6-((6-(trifluoromethyl)pyridin-3-yl)sulfonyl)-2,6-diazaspiro[3.3]heptane]
< 100	Cc1nc(C(F)(F)F)ccc1S(=O)(=O)N1CC2(CN(CC3(F)CCOCC3)C2)C1 [Example 188, 2-((4-fluorotetrahydro-2H-pyran-4-yl)methyl)-6-((2-methyl-6-(trifluoromethyl)pyridin-3-yl)sulfonyl)-2,6-diazaspiro[3.3]heptane]
100 to 250	CC1(O)CCC(N2CC3(C2)CN(S(=O)(=O)c2cnc(C(F)(F)F)cc2C2CC2)C3)CC1 (single isomer, unassigned) [Example 124, 4-(6-((4-cyclopropyl-6-(trifluoromethyl)pyridin-3-yl)sulfonyl)-2,6-diazaspiro[3.3]heptan-2-yl)-1-methylcyclohexan-1-ol]
100 to 250	Cc1cc(C(F)(F)F)nc(C)c1S(=O)(=O)N1CC2(CN(C3CC4(COC4)C3)C2)C1 [Example 101, 2-((2,4-dimethyl-6-(trifluoromethyl)pyridin-3-yl)sulfonyl)-6-(2-oxaspiro[3.3]heptan-6-yl)-2,6-diazaspiro[3.3]heptane]
250 to 4000	O=S(=O)(c1cnc(C(F)(F)F)cc1C1CC1)N1CC2(CN(C3CC4(COC4)C3)C2)C1 [Example 121, 2-((4-cyclopropyl-6-(trifluoromethyl)pyridin-3-yl)sulfonyl)-6-(2-oxaspiro[3.3]heptan-6-yl)-2,6-diazaspiro[3.3]heptane]
100 to 250	O=S(=O)(c1ccc(C(F)(F)F)nc1C1CC1)N1CC2(CN(CC3COC3)C2)C1 [Example 209, 2-((2-cyclopropyl-6-(trifluoromethyl)pyridin-3-yl)sulfonyl)-6-(oxetan-3-ylmethyl)-2,6-diazaspiro[3.3]heptane]
100 to 250	O=S(=O)(c1ccc(OC(F)F)cc1)N1CCO[C@@]2(CCN(C3CC4(COC4)C3)C2)C1 (single isomer, unassigned) [Example 26]
100 to 250	COc1ccc(S(=O)(=O)N2CC3(CN(C4CCOCC4)C3)C2)c(C)n1 [Example 47]
< 100	Cc1cc(C(F)(F)F)nc(C)c1S(=O)(=O)N1CC2(CN(CC3CCOCC3)C2)C1 [Example 102]
< 100	CC(C1CCOCC1)N1CC2(C1)CN(S(=O)(=O)c1cc(C(F)(F)F)nn1C)C2 (racemic) [Example 212, rac-2-((1-methyl-3-(trifluoromethyl)-1H-pyrazol-5-yl)sulfonyl)-6-(1-(tetrahydro-2H-pyran-4-yl)ethyl)-2,6-diazaspiro[3.3]heptane]
< 100	Cc1nc(C(F)(F)F)ccc1S(=O)(=O)N1CC2(CN(C3CCOCC3)C2)C1 [Example 51, 2-((2-Methyl-6-(trifluoromethyl)pyridin-3-yl)sulfonyl)-6-(tetrahydro-2H-pyran-4-yl)-2,6-diazaspiro[3.3]heptane]
250 to 4000	Cc1nc(C(F)(F)F)ccc1S(=O)(=O)N1CC2(CN(CC3CCCO3)C2)C1 (stereo not drawn) [Example 139]
100 to 250	Cc1nc(C(F)(F)F)ccc1S(=O)(=O)N1CC2(CN(CC3COC3)C2)C1 [Example 154]
< 100	O=S(=O)(c1cc(F)cc(F)c1)N1CCOC2(CCN(C3CCOCC3)C2)C1 (stereo not drawn) [Example 13, 9-((3,5-Difluorophenyl)sulfonyl)-2-(tetrahydro-2H-pyran-4-yl)-6-oxa-2,9-diazaspiro[4.5]decane]
< 100	COc1ccc(S(=O)(=O)N2CCC3(CCN(C4CCOCC4)C3)CC2)c(C)n1 [Example 43]
